Molecular target: T1, N4posG321V (Abl kinase domain hinge mutant) (Homo sapiens, UniProt P00519, G321V)
T1 construct: His10-TEV (N, cleaved yes); made in house; host or cells: E. coli BL21(DE3)pLysS, co-expressed with YopH phosphatase
T1 sequence (P00519 229-512 G321V): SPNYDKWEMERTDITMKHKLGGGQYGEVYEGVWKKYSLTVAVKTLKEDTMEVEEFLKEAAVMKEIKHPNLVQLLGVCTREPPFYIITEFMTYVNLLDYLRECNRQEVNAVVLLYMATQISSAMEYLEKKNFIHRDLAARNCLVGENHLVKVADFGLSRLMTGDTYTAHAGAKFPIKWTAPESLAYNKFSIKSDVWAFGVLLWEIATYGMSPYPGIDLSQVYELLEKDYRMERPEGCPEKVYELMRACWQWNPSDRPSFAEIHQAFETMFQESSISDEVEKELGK
Experiment: ClyA-AS nanopore tweezers single-channel current recording: ligand binding to N4posG321V
Conditions: 1 mM ATP or ATPγS with 10 mM MgCl2; -80 mV

Q: How did the “effect on N4posG321V current trace” value turn out when `Nc1ncnc2c1ncn2[C@@H]1O[C@H](CO[P@](=O)(O)O[P@](=O)(O)O[P@@](=O)(O)S)[C@@H](O)[C@H]1O` [ATPγS] was run?
A: did not trigger any change in the current trace
